For nine compounds, inhibition results are on record in ChEMBL document CHEMBL4342445, “Structurally Diverse Meroterpenoids from a Marine-Derived Aspergillus sp. Fungus” (J Nat Prod, 2020).

Active and inactive are the calls of the source. No cut-off for these calls is given here.

For this test, the target named is Acetylcholinesterase (Homo sapiens) (UniProt P22303). The test is described as follows: Inhibition of human erythrocytes AChE at 50 uM using acetylthiocholine iodide as substrate preincubated for 20 mins followed by substrate addition and measured every 30 secs for 1 hr by spectrophotometry based Ellman's method.
Sequence of Acetylcholinesterase (Homo sapiens) (P22303 whole entry): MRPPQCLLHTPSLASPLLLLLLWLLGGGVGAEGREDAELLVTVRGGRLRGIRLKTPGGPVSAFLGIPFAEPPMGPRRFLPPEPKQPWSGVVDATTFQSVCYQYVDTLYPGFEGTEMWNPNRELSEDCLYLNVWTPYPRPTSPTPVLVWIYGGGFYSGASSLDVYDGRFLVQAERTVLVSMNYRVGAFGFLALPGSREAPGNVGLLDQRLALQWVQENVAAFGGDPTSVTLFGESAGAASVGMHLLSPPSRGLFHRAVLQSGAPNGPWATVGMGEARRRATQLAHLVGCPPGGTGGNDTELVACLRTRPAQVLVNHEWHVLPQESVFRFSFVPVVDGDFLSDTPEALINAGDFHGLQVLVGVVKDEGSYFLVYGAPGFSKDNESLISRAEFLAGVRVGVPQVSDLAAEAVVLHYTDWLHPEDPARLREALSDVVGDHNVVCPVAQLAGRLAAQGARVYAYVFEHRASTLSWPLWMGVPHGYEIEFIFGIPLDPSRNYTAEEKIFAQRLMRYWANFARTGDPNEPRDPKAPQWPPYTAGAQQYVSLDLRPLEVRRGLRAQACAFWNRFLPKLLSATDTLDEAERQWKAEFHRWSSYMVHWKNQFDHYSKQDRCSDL

Consider `C=C1[C@@]2(C)C[C@H]3[C@]4(C)C=CC(=O)OC(C)(C)[C@H]4CC[C@]3(C)[C@]1(C(=O)OC)C(=O)[C@@](C)(O)C2=O`, for which the inhibition entry was “inactive”.

As to `C=C1[C@@]2(C(=O)OC)C(=O)[C@H](O)[C@]1(C)CC1=C(C)[C@]3(C=CC(=O)OC3(C)C)CC[C@@]12C`, the inhibition entry was “inactive”.

In the case of `C=C1[C@@]23C(=O)O[C@H](C)[C@]24O[C@@]2(C(=C)[C@]5(C=CC(=O)OC5(C)C)CC[C@]32C)[C@H](OC(C)=O)[C@@]1(C)OC4=O`, the inhibition entry is “inactive”.

Regarding `C=C1[C@@]2(C)CC3=C(C)[C@]4(C=CC(=O)OC4(C)C)CC[C@]3(C)[C@@]13C(=O)O[C@H](C)[C@@]3(O)C2=O`, the inhibition entry was “inactive”.

In the case of `C=C1[C@@]2(C)C[C@]3(C)[C@](C)(CC[C@@H]4C(C)(C)OC(=O)C=C[C@]43C)[C@@]13C(=O)O[C@H](C)[C@@]3(O)C2=O`, the inhibition entry is “inactive”.

Consider `C=C1[C@@]23C(=O)O[C@H](C)[C@@]2(O)C(=O)O[C@]1(C)[C@@H](OC(C)=O)C1=C(C)[C@]2(C=CC(=O)OC2(C)C)CC[C@@]13C`, for which the inhibition entry was “inactive”.

For `C=C1[C@]2(C)C(=O)[C@]3(O)[C@H](C)OC(=O)[C@]13[C@@]1(C)CC[C@@]3(C=CC(=O)OC3(C)C)C(C)=C1[C@@H]2OC(C)=O`, the inhibition entry was “inactive”.

In the case of `C=C1[C@@]23C(=O)O[C@H](C)[C@]24O[C@@]2(C(=C)[C@]5(CCC(=O)OC5(C)C)C[C@@H](OC(=O)/C(C)=C/C)[C@]32C)[C@H](OC(C)=O)[C@@]1(C)OC4=O`, the inhibition entry is “inactive”.

`C=C1[C@@]2(C)CC3=C(C)[C@]4(C=CC(=O)OC4(C)C)CC[C@]3(C)[C@@]13C(=O)O[C@@H](C)[C@@]3(O)C2=O`: the inhibition result is “inactive”.
